We go through 74 molecules from PubChem BioAssay AID179 (DTP/NCI, 2004).

One may read the pEC50 as the negative decadic logarithm of the EC50, by convention in mol/L. As usually defined, the pIC50 is the negative decadic logarithm of the IC50, by convention in mol/L.

SMILES strings stand for the structures. pEC50, pIC50: −log10 of the molar value. Calls of active or inactive are those of the source.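 The calls were made as follows: active = compounds giving half or more protection of infected cells from virus-caused growth loss, again on retest; inactive = the rest.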 A value given as a limit tells only on which side of the number the result lay.

In this assay the test system is CEM cells HIV-1 protection, formazan growth assay. The experiment in a line: NCI AIDS Antiviral Assay. The conditions noted are these: for pIC50: measured here: growth of uninfected CEM cells. The method in brief:
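Protection of CEM cells against HIV-1 was scored from cell growth (soluble formazan) across five concentrations, with parallel uninfected cells. Lack of protection may reflect toxicity.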

Turning to `CSc1nncc2[nH]c(C)nc12`, the pEC50 was less than 3.70 and the pIC50 is less than 3.70.

Regarding `Cc1ccc2c(c1)-c1nc(N)c(C#N)c(-c3ccc(Cl)cc3)c1CCS2(=O)=O`, the pEC50 was less than 3.70 and the pIC50 is 4.53.

Turning to `C=CC(=O)N1CN(C(=O)C=C)CN(C(=O)C=C)C1`, the pEC50 was less than 3.70 and the pIC50 is 5.94.

As for `CC1(C)SC2C(NC(=O)C(N)c3ccccc3)C(=O)N2C1C(=O)O` (stereo unspecified), the pEC50 was less than 3.70 and the pIC50 is less than 3.70.

For `CCO[C@H]1O[C@@H]2OC3(C)CCC4[C@H](C)CCC([C@H]1C)[C@]42OO3` (stereo partly specified), the pEC50 is less than 3.70 and the pIC50 is 4.45.

With `CC(=O)OC1(C#N)CC2OC1C1C2N1C(=O)c1ccccc1` (stereo unspecified), the pEC50 is less than 3.50 and the pIC50 was less than 3.50.

For `O=c1[nH]c(-c2ccccc2)nc2cc(Cl)ccc12`, the result was inactive.

As to `CC1(C)c2ccccc2N2O[C@@H]3C(=O)N(c4ccccc4)C(=O)[C@@H]3C21c1ccccc1` (stereo partly specified), the pEC50 is less than 4.44 and the pIC50 was less than 4.44.

Take `COc1cc(OC)c2c(=O)c3ccccc3n3c(C(C)O)cc1c23` (stereo unspecified): the pEC50 is less than 3.70 and the pIC50 was 5.32.

For the molecule `CP(=O)(CCSc1ccccc1)c1ccccc1` (stereo unspecified), the pEC50 was less than 3.18 and the pIC50 is less than 3.18.

As to `O=C(CCCc1ccccc1)NO`, the outcome was inactive.

As to `O=C(O)CCc1ccc2c(c1)C(=O)CC2`, the pEC50 was less than 3.70 and the pIC50 is less than 3.70.

`CCOP(=O)(OCC)C(c1ccc(F)cc1)N(C(=O)NC(F)(F)F)c1ccc(F)cc1` (stereo unspecified): the pEC50 is less than 3.70 and the pIC50 was less than 3.70.

In the case of `CS(=O)(=O)c1ccc(N2CC2)nn1`, the pEC50 was less than 3.70 and the pIC50 was 4.05.

As to `COC(=O)c1ccc(Cc2cc(Cc3ccc(C(=O)OC)cc3)cc(Cc3ccc(C(=O)OC)cc3)c2)cc1`, the pEC50 was less than 4.60 and the negative logarithm of the IC50 (pIC50) was less than 4.60.

`COC(=O)c1c(C)cccc1C1CN=NC12Cc1c(C)cccc1C2=O` (stereo unspecified): the negative-log EC50 (pEC50) is 4.44 and the pIC50 is 4.14.

As to `O=S(=O)(SC(Cl)(Cl)Cl)c1cccc(S(=O)(=O)c2cccc(S(=O)(=O)SC(Cl)(Cl)Cl)c2)c1`, the pEC50 was less than 3.70 and the pIC50 was less than 3.70.

In the case of `O=C(OCC1CC(C2(O)CCCCC2)C(=O)O1)c1ccccc1` (stereo unspecified), the pEC50 is less than 3.70 and the pIC50 was less than 3.70.

Regarding `COc1ccc(OC)c2cc(C3(C)SCCCS3)ccc12`, the result was inactive.

As to `CC(C)(C)C(=O)OCC1OC(N=[N+]=[N-])C(OC(=O)C(C)(C)C)C(OC(=O)C(C)(C)C)C1OC(=O)C(C)(C)C` (stereo unspecified), the pEC50 is less than 3.70 and the pIC50 was less than 3.70.

`OCC1OC(n2cnc3c(SSc4ncnc5c4ncn5C4OC(CO)C(O)C4O)ncnc32)C(O)C1O` (stereo unspecified): the pEC50 was less than 3.70 and the pIC50 was less than 3.70.

Turning to `COc1cc(CC2C(=O)OCC2C(=O)c2ccc3c(c2)OCO3)cc(OC)c1OC` (stereo unspecified), the pEC50 was less than 4.39 and the pIC50 is less than 4.39.

As for `CSCCC(NCc1c(O)ccc2ccc(=O)oc12)C(=O)O` (stereo unspecified), the pEC50 is less than 3.70 and the pIC50 is less than 3.70.

Regarding `S=C=Nc1ccc(SSc2ccc(N=C=S)cc2)cc1`, the pEC50 is less than 4.87 and the pIC50 is 4.95.

Consider `O=C(Nc1ccccc1CCl)Nc1ccccc1CCl` (tested in a mixture with another compound), for which the pEC50 was less than 3.70 and the pIC50 was 4.38.

As for `O=C(c1cccc([N+](=O)[O-])c1)c1c(O)c2ccccc2oc1=O`, the pEC50 is less than 3.70 and the pIC50 is 4.02.

Turning to `COc1ccc2[nH]c3c(c2c1)C(=O)c1ccncc1C3=O`, the pEC50 was less than 4.70 and the pIC50 was 5.92.

Turning to `CCC(NC1=NCCO1)c1cccs1` (stereo unspecified), the pEC50 was less than 3.70 and the pIC50 is 4.10.

For `Cn1c2ccccc2c2ccc3c(c21)C(=O)C(c1ccccc1)=CC3=O`, the pEC50 is less than 4.39 and the pIC50 was 4.53.

With `NC(=O)c1ncn(C2OC(CO)C(O)C2O)c1NC=O` (stereo unspecified), the pEC50 is less than 3.70 and the negative logarithm of the IC50 (pIC50) was less than 3.70.

With `N#CC12CCC(O)C(CC1)C2=O` (stereo unspecified), the outcome was inactive.

For the molecule `O=c1c2cc(S(=O)(=O)Nc3c(Cl)cccc3Cl)ccc2ncn1NS(=O)(=O)c1ccc2ccccc2c1`, the pEC50 is less than 3.70 and the pIC50 is 4.43.

Consider `C=C=C(C)C(C(C)C)N1CCCC1` (stereo unspecified), for which the pEC50 was less than 2.91 and the pIC50 was 3.86.

With `O=C(c1no[n+]([O-])c1C(=O)c1csc2ccccc12)c1csc2ccccc12`, the pEC50 was less than 3.70 and the negative-log IC50 (pIC50) was 5.98.

For the molecule `CN(C)CCCNc1nnc(NCCCN(C)C)c2c(=O)c3sccc3[nH]c12`, the pEC50 was less than 4.70 and the pIC50 is 5.57.

In the case of `CS1(=O)=NC(=NC#N)c2ccccc21` (stereo unspecified), the outcome was inactive.

For `CCCCC1Sc2cc(OC)cc([N+](=O)[O-])c2NC1=O` (stereo unspecified), the pEC50 was less than 3.70 and the pIC50 is 4.21.

In the case of `COCN1C(=O)[C@@H]2CCCN2C(=O)c2cc(N)ccc21`, the pEC50 is less than 3.70 and the pIC50 was less than 3.70.

Take `C=C1SC(=Nc2ccccc2Cl)N(C(=O)c2sc3ccccc3c2Cl)C1(C)C`: the pEC50 was less than 4.60 and the pIC50 was 4.94.

Turning to `CCN(CC)CC(=O)N1CCc2c([nH]c3ccccc23)C1c1cccnc1` (stereo unspecified), the pEC50 was less than 3.86 and the pIC50 is less than 3.86.

Turning to `COC(=O)/C(=N\Nc1nc(=S)[nH]n1N)C(C#N)c1ccc(Cl)cc1` (stereo unspecified), the pEC50 was less than 4.43 and the pIC50 is less than 4.43.

In the case of `O=S(/C=C/C=C/S(=O)(=O)c1ccccc1)c1ccccc1` (stereo unspecified), the pEC50 was less than 3.70 and the negative-log IC50 (pIC50) was 6.01.

With `COC(=O)Nc1nc2ccc(C(=O)c3ccccc3)cc2[nH]1`, the pEC50 was less than 5.70 and the pIC50 is 7.16.

In the case of `O=C1NC(=O)C2C(=O)NC(=O)C1C2c1c(Cl)cccc1Cl` (stereo unspecified), the pEC50 was less than 3.12 and the pIC50 was 3.30.

On to `CCCCN(CCO)Cc1cc(Nc2c3ccccc3nc3ccccc23)ccc1O`, for which the pEC50 is less than 4.20 and the pIC50 is 4.69.

Take `NC(=O)OCC(O)COc1ccc(Cl)cc1` (stereo unspecified): the pEC50 was less than 3.70 and the pIC50 is less than 3.70.

Turning to `CC(O[Si](C)(C)C)C1C=CC(C)n2c(=O)n(-c3ccccc3)c(=O)n21` (stereo unspecified), the result was inactive.

Regarding `CCCCNc1cc2oc(=O)cc(C)c2cc1N`, the pEC50 is less than 3.81 and the pIC50 is 4.35.

Take `NNC(=S)N/N=C(\CCCC(=O)NCCc1ccccc1)CC(=O)c1ccccc1`: the pEC50 was less than 3.66 and the negative logarithm of the IC50 (pIC50) was less than 3.66.

Take `CCN1CCC(C)OP1(=O)Cc1ccccc1` (stereo unspecified): the pEC50 is less than 3.70 and the negative logarithm of the IC50 (pIC50) was less than 3.70.

Consider `CN1OC2CCC1CC(OC(c1ccccc1)c1ccccc1)C2` (stereo unspecified), for which the pEC50 is less than 3.70 and the pIC50 is less than 3.70.

Turning to `CCCCCCCCCCCCC(Br)C(=O)NCC(N)=O` (stereo unspecified), the result was inactive.

Turning to `COc1cc2cc(c1Cl)N(C)C(=O)CC(OC(=O)C(C)N(C)C(=O)C(C)C)C1(C)OC1C(C)C1CC(O)(NC(=O)O1)C(OC)/C=C/C=C(C)C2OC` (stereo unspecified), the outcome was inactive.

For `CCC(CCCC[C@@H]1CC[C@H]2CC(=O)C[C@@H]12)OC` (stereo partly specified), the pEC50 was less than 3.70 and the negative-log IC50 (pIC50) was 3.82.

As for `OCc1c[te]c(-c2ccccc2)c1`, the result was inactive.

With `O=S1(=O)NCNc2cc(C(F)(F)F)ccc21`, the pEC50 was less than 3.00 and the pIC50 was 3.42.

Consider `OC1(c2ccccc2)N=C(c2ccccc2)c2ccccc2-n2cccc21` (stereo unspecified), for which the pEC50 was less than 3.70 and the pIC50 was less than 3.70.

Consider `CC1(C)OC(=O)C2(O1)C(=O)C1CCCCC12` (stereo unspecified), for which the pEC50 is less than 3.70 and the pIC50 is less than 3.70.

As to `CCOC(=O)CN=c1nc(SC)sc2c(C(=O)OCC)nc(Sc3ccccc3)n12`, the pEC50 is less than 4.22 and the pIC50 was 4.97.

In the case of `C=CCOc1cc2c(cc1C(C)c1ccc(OC)cc1)OCO2` (stereo unspecified), the pEC50 was less than 4.49 and the pIC50 is 6.15.

On to `CCOC(=O)Cn1c(=O)cc(C=O)c2ccccc21`, for which the pEC50 was less than 3.70 and the pIC50 is 4.81.

With `CC(C)OP(=O)(OC(C)C)C([CH2][Sn]([CH3])([CH3])[Br])P(=O)(OC(C)C)OC(C)C`, the pEC50 was less than 3.70 and the pIC50 was 5.06.

`COC(=O)C1=C(O)C(C(=O)OC)C2CC(=O)CC1C2(C)C` (stereo unspecified): the pEC50 is less than 3.70 and the pIC50 is less than 3.70.

Take `COC1/C=C/OC2(C)Oc3c(C)c(O)c4c(O)c(c(/C=N/N5C(C)CN(Cc6ccc(C)cc6)CC5C)c(O)c4c3C2=O)NC(=O)C(C)=C/C=C/C(C)C(O)C(C)C(O)C(C)C(OC(C)=O)C1C` (stereo unspecified): the pEC50 was less than 3.70 and the pIC50 was 5.41.

Consider `O=C1OC(=O)c2c1ccc1ccccc21`, for which the pEC50 is less than 4.30 and the pIC50 is less than 4.30.

Consider `CN(C)c1nc(N(C)C)nc(N(C)CN(C)c2nc(N(C)C)nc(N(C)C)n2)n1`, for which the pEC50 was less than 4.30 and the pIC50 was less than 4.30.

For `O=C(N/C(=C\c1ccc(Oc2ccc(Cl)c(Cl)c2)cc1)c1nc2ccccc2[nH]1)c1ccccc1`, the outcome was inactive.

In the case of `NC(=S)N/N=C(/C(=O)Nc1nc2ccc([N+](=O)[O-])cc2s1)C1C(=O)NC(=S)NC1=O`, the pEC50 was less than 4.81 and the pIC50 was less than 4.81.

Consider `O=C(O)C1CCC(c2ccc(Oc3ccccc3)cc2)N1` (stereo unspecified), for which the pEC50 is less than 3.70 and the pIC50 was less than 3.70.

Turning to `COc1cc(/C=C(\NC(=O)c2ccccc2)c2nc3ccc4c(c3[nH]2)C(=O)c2ccccc2C4=O)cc(OC)c1OC`, the result was inactive.

Turning to `N#CCC(=O)N/N=C\C(O)C(O)C(O)C(O)CO` (stereo unspecified), the result was inactive.

As for `COc1ccccc1NC(=O)C(CC(C(=O)Nc1ccccc1OC)/C(C)=N/NC(=O)c1ccccc1O)/C(C)=N/NC(=O)c1ccccc1O` (stereo unspecified), the pEC50 is less than 4.29 and the negative-log IC50 (pIC50) was less than 4.29.

In the case of `CCOc1cnn(-c2ccccc2)c(=O)c1SCc1ccccc1`, the pEC50 was less than 4.11 and the pIC50 is 4.25.

Take `OCc1cccnc1`: the pEC50 was less than 3.70 and the pIC50 was less than 3.70.
